# Assay results from patent US5827860A, “Peptidyl heterocycles useful in the treatment of thrombin related disorders” (Ortho Pharmaceutical Corporation, priority 1995, dated 1998).
# Assay: Ex vivo assay for duration of action after i.v. dosing (time to half plasma elimination)
# Settings: male rats, from slope of V0 vs. time of plasma thrombin inhibition
# Protocol: An ex vivo assay was conducted to determine the duration of action of the compounds of Formula I. For this i.v. assay male rats (Long Evans, 350-500 g) were implanted with a teflon cannulae via the femoral artery while under anesthesia (pentobarbital i.p., 35 mg/kg). […] The animals were allowed to recover for at least 24 h after the surgical procedure.
# The test compound was dispersed in water and delivered to the animal (0.25 mL) via the femoral vein. […] A plasma sample was obtained by centrifuging the blood at 10,000 rpm for 5 min. This sample is analyzed for thrombin inhibition using the chromogenic assay, described below.
# Datum was collected over a 30 min period and the initial rate of substrate hydrolysis (V0 (mOD/min)) was calculated with an analysis program (Softmax, Molecular Devices).
# The time to half plasma elimination (t 1/2) was calculated from the slope of V0 vs. time, using the following equation: t 1/2=-1.6 slope.
row,SMILES,t1/2 (time to half plasma elimination) [min]
1,CN[C@H](Cc1ccccc1)C(=O)N1CCC[C@H]1C(=O)N[C@@H](CCCNC(=N)N)C(=O)c1nc2ccc(O)cc2s1 [Compound 25],14
2,CNC(C(=O)N1CCC[C@H]1C(=O)N[C@@H](CCCNC(=N)N)C(=O)c1nc2ccccc2s1)c1ccccc1 (some centres unmarked) [Compound 34],26

# Assay: Ex vivo bioavailability assay, drug administered i.v. and p.o.
# Settings: male rats, p.o. vs i.v., drug in plasma extrapolated from thrombin inhibition
# Protocol: Bioavailability was determined by an ex vivo assay which incorporated hydrolysis rates from drug administered both i.v. and p.o. In this assay male rats were prepared as described above with a teflon tube implanted in their femoral artery.
# A standard curve was generated by adding of drug or vehicle (100 μL) to whole blood (900 μL) followed by incubating (5 min) and centrifuging to obtain plasma. The percentage of thrombin inhibition was calculated by comparing the V0 of the vehicle to that of the drug treated samples. Datum from several runs were normalized with a statistical package (SAS) to generate a standard curve.
# The percentage of thrombin inhibition in the treated animals was calculated by comparing the V0 prior to treatment with the V0 obtained from samples collected after treatment. The percent inhibition was applied to the standard curve (generated above) using the statistical package (SAS) and the quantity of drug in the sample was extrapolated.
# Bioavailability (Bioavail.) was calculated from the plots of the extrapolated drug in sample vs. time for both i.v. and p.o. administration using the following equation:
# %Bioavail.=(i.v. dose administered/p.o. dose administered)×(area
# under p.o. curve/area under curve i.v.)
row,Bioavail. [%],SMILES
1,1.2,"CN[C@H](Cc1ccccc1)C(=O)N1CCC[C@H]1C(=O)N[C@@H](CCCNC(=N)N)C(=O)c1nc2ccccc2s1 [Compound 1, N-METHYL-D-PHENYLALANYL-N-[4-[(AMINOIMINOMETHYL)AMINO]-1S-[(BENXOTHIAZOL-2- YL)CARBONYL]BUTYL]-L-PROLINAMIDE]"

# Assay: not given
# Settings: rat, in vivo, iv
row,SMILES,t1/2 (time to half plasma elimination) [min]
1,CNC(Cc1ccccc1)C(=O)N1CCCC1C(=O)NC(CCCNC(=N)N)C(=O)c1nccs1 (centres unmarked) [Compound 4],16
2,CN[C@H](Cc1ccccc1)C(=O)N1CCC[C@H]1C(=O)N[C@@H](CCCNC(=N)N)C(=O)c1nc2ccc(C(=O)O)cc2s1 [Compound 13],25
3,CN[C@H](Cc1ccccc1)C(=O)N1CCC[C@H]1C(=O)N[C@@H](CCCNC(=N)N)C(=O)c1nc2ccc(F)cc2s1 [Compound 17],8
4,CCOC(=O)c1csc(C(=O)[C@H](CCCNC(=N)N)NC(=O)[C@@H]2CCCN2C(=O)[C@@H](Cc2ccccc2)NC)n1 [Compound 19],14
5,CNC(Cc1ccccc1)C(=O)N1CCCC1C(=O)NC(CCCNC(=N)N)C(=O)c1nc2ccccc2[nH]1 (centres unmarked) [Compound 21],5
6,CN[C@H](Cc1ccccc1)C(=O)N1CCC[C@H]1C(=O)N[C@@H](CCCNC(=N)N)C(=O)c1nc(C(=O)O)cs1 [Compound 54],15

# Further lines, results first:
row,t1/2 (time to half plasma elimination) [min],SMILES
1,19,"CN[C@H](Cc1ccccc1)C(=O)N1CCC[C@H]1C(=O)N[C@@H](CCCNC(=N)N)C(=O)c1nc2ccccc2s1 [Compound 1, N-METHYL-D-PHENYLALANYL-N-[4-[(AMINOIMINOMETHYL)AMINO]-1S-[(BENXOTHIAZOL-2- YL)CARBONYL]BUTYL]-L-PROLINAMIDE]"
2,43,CN[C@H](Cc1ccccc1)C(=O)N1CCC[C@H]1C(=O)N[C@@H](CCCNC(=N)N)C(=O)c1nc2ccc(C(=O)OC)cc2s1 [Compound 12]
3,16,CN[C@H](Cc1ccccc1)C(=O)N1CCC[C@H]1C(=O)N[C@@H](CCCNC(=N)N)C(=O)c1nc2ccc(CO)cc2s1 [Compound 15]
4,14,"CN[C@H](CC1CCCCC1)C(=O)N1CCC[C@H]1C(=O)N[C@@H](CCCNC(=N)N)C(=O)c1nc2ccccc2s1 [Compound 29, N-METHYL-D-CYCLOHEXYLALANYL-N-[4-[(AMINOIMINOMETHYL)AMINO]-1S-[(BENXOTHIAZOL-2-YL)CARBONYL]BUTYL]-L-PROLINAMIDE]"
5,6,CN[C@H](Cc1c(F)c(F)c(F)c(F)c1F)C(=O)N1CCC[C@H]1C(=O)N[C@@H](CCCNC(=N)N)C(=O)c1nc2ccccc2s1 [Compound 30]
6,19,"CN[C@H](Cc1ccc(F)cc1)C(=O)N1CCC[C@H]1C(=O)N[C@@H](CCCNC(=N)N)C(=O)c1nc2ccccc2s1 [Compound 32, N-METHYL-D-(4-FLUOROPHENYL)ALANYL-N-[4-[(AMINOIMINOMETHYL)AMINO]-1S-[(BENXOTHIAZOL-2-YL)CARBONYL]BUTYL]-L-PROLINAMIDE]"
7,18,"CNC(C(=O)N1CCCC1C(=O)NC(CCCNC(=N)N)C(=O)c1nc2ccccc2s1)c1ccccc1 [Compound 33, N-METHYL-D-PHENYLGLYCYL-N-[4-[(AMINOIMINOMETHYL)AMINO]-1S-[(BENXOTHIAZOL-2- YL)CARBONYL]BUTYL]-L-PROLINAMIDE]"
8,11,CC(=O)N[C@H](Cc1ccccc1)C(=O)N1CCC[C@H]1C(=O)N[C@@H](CCCNC(=N)N)C(=O)c1nc2ccccc2s1.O=C(O)C(F)(F)F [Compound 35]
9,42,"CN[C@@H](C(=O)N1CCC[C@H]1C(=O)N[C@@H](CCCNC(=N)N)C(=O)c1nc2ccccc2s1)C1CCCCC1 [Compound 37, N-METHYL-D-CYCLOHEXYLGLYCYL-N-[4-[(AMINOIMINOMETHYL)AMINO]-1S-[(BENXOTHIAZOL-2-YL)CARBONYL]BUTYL]-L-PROLINAMIDE]"
10,17,CN[C@H](Cc1ccccc1)C(=O)N1CCC[C@H]1C(=O)N[C@@H](CCCNC(=N)N)C(=O)c1nc2c(s1)CCCC2 [Compound 51]
11,5,CN[C@H](Cc1ccccc1)C(=O)N1CCC[C@H]1C(=O)N[C@@H](CCCNC(=N)N)C(=O)c1nc2ccc3ccccc3c2s1 [Compound 52]
